These results are taken from patent US11149037B2, “Pyrazole MAGL inhibitors” (H. Lundbeck A/S, priority 2017, dated 2021).

The target in assay [1] is MAGL (Mus musculus (Mouse), UniProt O35678). Nature of the assay: In vitro competitive activity-based protein profiling, mouse proteomes (brain membrane fraction or cell lysates). The assay is classed as biochemical. As to conditions: mouse proteome, read-out: MAGL % inh. 1 μM (mouse). As for the experimental part: (§1) In Vitro Competitive Activity-Based Protein Profiling.
Sequence of MAGL (Mus musculus (Mouse), UniProt O35678) (O35678 whole entry): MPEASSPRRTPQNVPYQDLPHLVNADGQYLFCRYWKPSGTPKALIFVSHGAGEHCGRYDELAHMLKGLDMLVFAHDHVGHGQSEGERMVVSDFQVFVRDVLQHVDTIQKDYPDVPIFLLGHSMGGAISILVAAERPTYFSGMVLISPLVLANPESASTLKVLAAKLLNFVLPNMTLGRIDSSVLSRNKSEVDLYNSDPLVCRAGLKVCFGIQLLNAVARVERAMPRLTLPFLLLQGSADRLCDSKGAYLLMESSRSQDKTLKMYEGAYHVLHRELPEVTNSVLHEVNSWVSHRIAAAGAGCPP
(§2) Proteomes (mouse brain membrane fraction or cell lysates for mouse assays; human prefrontal cortex or PC3 cell membrane fractions for human assays) (50 μL, 1.0 or 2.0 mg/mL total protein concentration) were preincubated with varying concentrations of inhibitors at 37° C. After 30 min, FP-Rh or JW912 or HT-01 (1.0 μL, 50 μM in DMSO) was added and the mixture was incubated for another 30 min at 37° C. Reactions were quenched with SDS loading buffer (15 μL-4×) and run on SDS-PAGE. Following gel imaging, serine hydrolase activity was determined by measuring fluorescent intensity of gel bands corresponding to MAGL and FAAH using ImageJ 1.43u software.

For assay [2], the target named is MAGL (Homo sapiens (Human), UniProt Q99685). Nature of the assay: In vitro competitive activity-based protein profiling, human proteomes (prefrontal cortex or PC3 cell membrane fractions). Type of assay: biochemical. As to conditions: human proteome; for inhibition at 1 µM: read-out: MAGL % inh. 1 μM (human). As for the experimental part: as §1, §2
Sequence of MAGL (Homo sapiens (Human), UniProt Q99685) (Q99685 whole entry): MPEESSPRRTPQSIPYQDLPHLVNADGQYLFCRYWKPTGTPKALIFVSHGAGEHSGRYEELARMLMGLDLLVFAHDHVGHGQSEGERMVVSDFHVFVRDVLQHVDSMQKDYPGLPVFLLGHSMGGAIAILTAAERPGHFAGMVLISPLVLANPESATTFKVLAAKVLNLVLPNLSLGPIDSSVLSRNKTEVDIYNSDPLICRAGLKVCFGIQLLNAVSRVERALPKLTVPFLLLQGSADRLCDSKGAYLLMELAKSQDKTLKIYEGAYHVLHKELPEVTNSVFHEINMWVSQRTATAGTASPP

Regarding `C[C@H]1CN(C(=O)n2ccc(NS(C)(=O)=O)n2)CCN1Cc1ccc(Cl)c(N2CCCC2)c1` [Example 42, (S)-N-(1-(4-(4-Chloro-3-(pyrrolidin-1-yl)benzyl)-3-methylpiperazine-1-carbonyl)-1H-pyrazol-3-yl)methanesulfonamide], the inhibition at 1 µM at MAGL [1] and at MAGL [2] was greater than 75% in each case.
As for `CC(=O)Nc1ccn(C(=O)N2CCC3(CCN(Cc4cccc(C(F)(F)F)c4)C3)CC2)n1` [Example 175, N-(1-(2-(3-(Trifluoromethyl)benzyl)-2,8-diazaspiro[4.5]decane-8-carbonyl)-1H-pyrazol-3-yl)acetamide], the inhibition at 1 µM on MAGL [1] was greater than 75%. Besides, on MAGL [2], the inhibition at 1 µM is greater than 75% and the IC50 was less than 0.1 µM.
With `CN(Cc1ccc(Cl)c(N2CC3COCC3C2)c1)C1CCN(C(=O)n2ccc(NS(C)(=O)=O)n2)CC1` (stereo not shown) [Example 177, N-(1-(4-((4-Chloro-3-(tetrahydro-1H-furo[3,4-c]pyrrol-5(3H)-yl)benzyl)(methyl)amino)piperidine-1-carbonyl)-1H-pyrazol-3-yl)methanesulfonamide], the inhibition at 1 µM at MAGL [1] and on MAGL [2] was greater than 75% in each case.
Turning to `C[C@H]1CN(Cc2ccc(C(F)(F)F)c(N3CC4COCC4C3)c2)CCN1C(=O)n1ccc(NS(C)(=O)=O)n1` (stereo partly drawn) [Example 178, N-(1-((2S)-2-Methyl-4-(3-(tetrahydro-1H-furo[3,4-c]pyrrol-5(3H)-yl)-4-(trifluoromethyl)benzyl)piperazine-1-carbonyl)-1H-pyrazol-3-yl)methanesulfonamide], the inhibition at 1 µM at MAGL [1] is greater than 75%. Further, at MAGL [2], the inhibition at 1 µM is greater than 75% and the half-maximal inhibitory concentration (IC50) was less than 0.1 µM.
Take `C[C@H]1CN(C(=O)n2ccc(NS(C)(=O)=O)n2)CCN1Cc1ccc(C(F)(F)F)c(N2CC3COCC3C2)c1` (stereo partly drawn) [Example 179, N-(1-((3S)-3-Methyl-4-(3-(tetrahydro-1H-furo[3,4-c]pyrrol-5(3H)-yl)-4-(trifluoromethyl)benzyl)piperazine-1-carbonyl)-1H-pyrazol-3-yl)methanesulfonamide]: the inhibition at 1 µM on MAGL [1] and on MAGL [2] was greater than 75% in each case. Further, the IC50 at MAGL [2] was less than 0.1 µM.
`C[C@@H]1CN(Cc2ccc(C(F)(F)F)c(N3CC4COCC4C3)c2)CCN1C(=O)n1ccc(NS(C)(=O)=O)n1` (stereo partly drawn) [Example 180, N-(1-((2R)-2-Methyl-4-(3-(tetrahydro-1H-furo[3,4-c]pyrrol-5(3H)-yl)-4-(trifluoromethyl)benzyl)piperazine-1-carbonyl)-1H-pyrazol-3-yl)methanesulfonamide]: the inhibition at 1 µM on MAGL [1] and on MAGL [2] was greater than 75% each time. The compound also showed an IC50 at MAGL [2] of less than 0.1 µM.
Consider `CS(=O)(=O)Nc1ccn(C(=O)N2CCN(Cc3ccc(C(F)(F)F)c(N4CC5COCC5C4)c3)CC2)n1` (stereo not shown) [Example 181, N-(1-(4-(3-(Tetrahydro-1H-furo[3,4-c]pyrrol-5(3H)-yl)-4-(trifluoromethyl)benzyl)piperazine-1-carbonyl)-1H-pyrazol-3-yl)methanesulfonamide], for which, at MAGL [1], the inhibition at 1 µM is greater than 75%. Further, at MAGL [2], the inhibition at 1 µM was greater than 75% and the IC50 was less than 0.1 µM.
Take `CN(Cc1ccc(Cl)c(N2CCCC2)c1)C1(C)CCN(C(=O)n2ccc(NS(C)(=O)=O)n2)CC1` [Example 183, N-(1-(4-((4-Chloro-3-(pyrrolidin-1-yl)benzyl)(methyl)amino)-4-methylpiperidine-1-carbonyl)-1H-pyrazol-3-yl)methanesulfonamide]: the inhibition at 1 µM at MAGL [1] and on MAGL [2] was greater than 75% in each case.
On to `CN(Cc1cc(Cl)ccc1C(F)(F)F)CC1CCN(C(=O)n2ccc(NS(C)(=O)=O)n2)CC1` [Example 184, N-(1-(4-(((5-Chloro-2-(trifluoromethyl)benzyl)(methyl)amino)methyl)piperidine-1-carbonyl)-1H-pyrazol-3-yl)methanesulfonamide], for which, at MAGL [1], the inhibition at 1 µM was greater than 75%. Moreover, at MAGL [2], the inhibition at 1 µM was greater than 75% and the IC50 was less than 0.1 µM.
For `C[C@H]1CN(C(=O)n2ccc(NS(C)(=O)=O)n2)CCN1Cc1ccc(C(F)(F)F)c(N2CCC(F)CC2)c1` [Example 187, (S)-N-(1-(4-(3-(4-Fluoropiperidin-1-yl)-4-(trifluoromethyl)benzyl)-3-methylpiperazine-1-carbonyl)-1H-pyrazol-3-yl)methanesulfonamide], the inhibition at 1 µM on MAGL [1] was greater than 75%. At MAGL [2], the inhibition at 1 µM is greater than 75% and the half-inhibitory concentration (IC50) was less than 0.1 µM.
Take `CC(=O)Nc1ccn(C(=O)N2CC3CN(Cc4cc(C(F)(F)F)cc(C5(C(=O)O)CCCC5)c4)CC3C2)n1` (stereo not shown) [Example 191, 1-(3-((5-(3-Acetamido-1H-pyrazole-1-carbonyl)hexahydropyrrolo[3,4-c]pyrrol-2(1H)-yl)methyl)-5-(trifluoromethyl)phenyl)cyclopentane-1-carboxylic acid]: the inhibition at 1 µM on MAGL [1] and on MAGL [2] was greater than 75% each time.
Take `C[C@@H]1CN(C(=O)n2ccc(NS(C)(=O)=O)n2)CCN1Cc1ccc(Cl)c(C2CCCC2)c1` [Example 215, (R)-N-(1-(4-(4-Chloro-3-cyclopentyl-benzyl)-3-methyl-piperazine-1-carbonyl)-1H-pyrazol-3-yl)methane-sulfonamide]: the inhibition at 1 µM on MAGL [2] was greater than 75%.
Take `C[C@H]1CN(C(=O)n2ccc(NS(C)(=O)=O)n2)CCN1Cc1ccc(Cl)c(C2CCCC2)c1` [Example 216, (S)-N-(1-(4-(4-Chloro-3-cyclopentyl-benzyl)-3-methyl-piperazine-1-carbonyl)-1H-pyrazol-3-yl)methane-sulfonamide]: the inhibition at 1 µM at MAGL [2] was greater than 75%.
The same measure, in the same setting: as for `CC(=O)Nc1ccn(C(=O)N2CCC(C)(N(C)Cc3ccc(Cl)c(C)c3)CC2)n1` [Example 217, N-(1-(4-((4-Chloro-3-methylbenzyl) (methyl)amino)-4-methyl-piperidine-1-carbonyl)-1H-pyrazol-3-yl)acetamide], the figure is greater than 75%.
Take `CS(=O)(=O)Nc1ccn(C(=O)N2CCN(Cc3ccc(F)c(OC(F)(F)F)c3)CC2)n1` [Example 218, N-(1-(4-(4-Fluoro-3-(trifluoromethoxy)benzyl)piperazine-1-carbonyl)-1H-pyrazol-3-yl)methane-sulfonamide]: on MAGL [2], the inhibition at 1 µM was greater than 75%.
As to `CS(=O)(=O)Nc1ccn(C(=O)N2CCN(Cc3cccc(C(F)(F)F)c3Cl)CC2)n1` [Example 219, N-(1-(4-(2-Chloro-3-(trifluoromethyl)benzyl)piperazine-1-carbonyl)-1H-pyrazol-3-yl)methane-sulfonamide], on MAGL [2], the inhibition at 1 µM is greater than 75%.
Consider `Cc1c(CN2CCN(C(=O)n3ccc(NS(C)(=O)=O)n3)CC2)cccc1C(F)(F)F` [Example 220, N-(1-(4-(2-Methyl-3-(trifluoromethyl)benzyl)piperazine-1-carbonyl)-1H-pyrazol-3-yl)methane-sulfonamide], for which the inhibition at 1 µM on MAGL [2] was greater than 75%.
The same measure, in the same setting: as for `CS(=O)(=O)Nc1ccn(C(=O)N2CCN(Cc3ccc(OC(F)F)c(OCC4CC4)c3)CC2)n1` [Example 221, N-(1-(4-(3-(Cyclopropyl-methoxy)-4-(difluoro-methoxy)benzyl)piperazine-1-carbonyl)-1H-pyrazol-3-yl)methane-sulfonamide], the figure is greater than 75%; as for `CS(=O)(=O)Nc1ccn(C(=O)N2CCN(Cc3ccc(F)c(Oc4ccccc4)c3)CC2)n1` [Example 222, N-(1-(4-(4-Fluoro-3-phenoxy-benzyl)piperazine-1-carbonyl)-1H-pyrazol-3-yl)methane-sulfonamide], greater than 75%.
